We go through one compound from US11351178B2, “Selective HDAC6 inhibitors” (ITALFARMACO S.P.A., priority 2017, dated 2022).

Data set [1] addresses T1, HDAC8 (Homo sapiens, UniProt Q9BY41).
T1 construct: purchased BPS 50008
T1 sequence (Q9BY41 1-377): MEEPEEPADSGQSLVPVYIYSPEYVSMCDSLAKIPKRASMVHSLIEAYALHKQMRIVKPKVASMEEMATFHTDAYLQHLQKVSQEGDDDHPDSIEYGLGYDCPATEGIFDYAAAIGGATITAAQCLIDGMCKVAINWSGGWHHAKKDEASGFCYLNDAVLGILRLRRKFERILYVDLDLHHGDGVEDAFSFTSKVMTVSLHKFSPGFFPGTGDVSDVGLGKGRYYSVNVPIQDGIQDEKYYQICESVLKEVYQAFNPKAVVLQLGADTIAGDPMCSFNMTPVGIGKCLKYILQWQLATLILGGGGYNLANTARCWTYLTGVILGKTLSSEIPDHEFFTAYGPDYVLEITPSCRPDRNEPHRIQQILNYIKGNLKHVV
The data set is described as follows: Enzymatic test HDAC8. It counts as biochemical. The conditions noted are these: Table 3.

Data set [2] in a line: Stability to Phase I metabolism in human S9 liver fraction. Format: in vitro ADME. The conditions noted are these: human liver S9 fraction, after 90 min, 37° C. The procedure, abridged: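 Compounds were incubated with rat or human liver S9 fraction at 37 °C for up to 90 min. Reactions were quenched on ice with acidified acetonitrile and analysed by HPLC-UV or LC-MS/MS. Percent remaining versus time zero and intrinsic clearance were calculated.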

Data set [3] in a line: Pharmacokinetics after single intravenous and oral administration to the mouse.
Procedure: Plasma levels and main pharmacokinetic parameters of test compounds were evaluated after single intravenous and oral administration to the mouse.
The formulations were prepared in a mixture of DMSO/PEG400/H2O. Blood was collected at the following sampling times: 5, 10, 15, 30 minutes, 1, 2, 4 and 6 hours after administration. Plasma samples (100 μL) were deproteinized by addition of 1% formic acid in ACN, then vortex mixed and centrifuged. For each sample, an aliquot of the supernatant was collected and diluted with water, filtered with 0.45 μm regenerated cellulose filter and analysed by LC-MS/MS. Plasma levels of the test compounds were calculated on a calibration curve prepared in the range 0.5-200 ng/mL.
Pharmacokinetic parameters were calculated on the mean plasma concentration curve using the software Kinetica™ v.

Consider `Cn1c(Sc2ccc(C(=O)NO)cc2)nnc1-c1cccs1` [comp. 10, N-hydroxy-4-((4-methyl-5-(thiophen-2-yl)-4H-1,2,4-triazol-3-yl)thio)benzamide], for which 506 nM corresponded to half-maximal inhibition in data set [1] (IC50). The “residual percentage in human S9 fraction” value in data set [2] stood at 95%. Moreover, in data set [3] (Os, dose 5.2 mg/kg), the AUCtot is 123 ng·h/mL; the Cmax (as a rule, the highest concentration seen after dosing) is reported as 144 ng/mL; the Tmax (as a rule, the time at which the peak concentration occurs) is 15 min. In data set [3] (i.v., dose […]), the T1/2 came to 78 min and the Vd is listed as 20.5 L/kg. For the same compound, the bioavailability (as a rule, dose-corrected exposure relative to a reference, in per cent) in data set [3] (in vivo, po, 5.2 mg/kg) stood at 25.8%.
